What follows are compounds tested on T1, polyphenol oxidase (PPO) from cocoa beans (assay: spectrophotometric oxidation ([…] nm), Michaelis-Menten nonlinear regression). Conditions: crude extract of non-treated beans; McIlvaine buffer pH 6.5; 35 °C; substrate 5-200 mM.
T1 construct: native; isoenzyme not identified
Format: biochemical, Theobroma cacao

| SMILES | Km [µM] |
| --- | --- |
| Oc1cc(O)c2c(c1)O[C@H](c1ccc(O)c(O)c1)[C@@H](O)C2 [(+)-catechin] | 1450 ± 350 |
| Oc1ccccc1O [catechol] | 610 ± 120 |
| Oc1cc(O)c2c(c1)O[C@H](c1ccc(O)c(O)c1)[C@H](O)C2 [(−)-epicatechin] | 1260 ± 370 |
